Reference: patent US20120252721A1 (priority 2011, published 2012)
Where two headings read alike, the source gives them in different places.

Columns and labels:
[1] = tested on: HCV genotype 1a H77 strain subgenomic luciferase replicon (H1a-luc); assay: Luciferase replicon assay, genotype 1a; type: cell-based; conditions: Hepatitis C virus, read-out: EC50 1a
In short: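 Huh-7 cells carrying H1a-luc subgenomic replicon (luciferase-neomycin phosphotransferase fusion), seeded at 1×10^4 cells/well, dosed 3 h later with ten 5-fold compound dilutions for 72 h at 37 °C. Replication read as luciferase luminescence; replicon-free Huh-7 cells as negative control. EC50 from dose-response curve fits.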

in vitro = type: cell-based; conditions: human; GS4.1 cells, cellular viability
Method: For cytotoxicity evaluation, GS4.1 cells were treated with compounds as described above and cellular viability was monitored using the Cell Titer 96 AQeous One Solution Cell Proliferation Assay (Promega). CC50 values were determined from the % cytotoxicity versus concentration data with Tecan Magellan software as described above.

[2] = tested on: 1a-luc Y93C (HCV genotype 1a replicon); assay: Luciferase replicon transient transfection assay, 1a-luc Y93C; type: cell-based, hepatitis C virus; conditions: for EC50: Hepatitis C virus, 96 h, Huh7.5 cells, 4 days
Method: (§1) The luciferase replicon transient transfection assay measures the ability of a test compound to inhibit the replication of a transiently-transfected HCV luciferase-bearing wild-type or mutant replicon in cured human hepatoma cells (Huh7.5). The inhibition of HCV replication was measured by quantification of luciferase protein expression. This assay has been validated using a panel of genotype 1a and 1b replicons bearing mutations known to be associated with resistance to BMS-790052. Briefly, subconfluent Huh7.5 cells were electroporated with 10 μg of wild-type or mutant luciferase-bearing HCV replicon RNA. The cells were then seeded in 96-well opaque white plates at 3×10^4 cells/well in 150 μL/well and incubated for 4 hrs at 37° C./5% CO2. Ten 1:5 serial dilutions of each test compound were made in media (DMEM containing glucose, L-glutamine and sodium pyruvate, 10% fetal bovine serum, 100 IU/mL penicillin, 100 μg/mL streptomycin, 2 mM GlutaMAX, and 1×MEM non-essential amino acids (Mediatech, Inc. and Invitrogen Corp.)) at concentrations that were 4× higher than the final concentrations to be tested and 50 μL/well was added to the transfected cells. Untreated, mock-transfected cells served as a negative control of luciferase expression. The plates were incubated at 37° C./5% CO2 for 4 days whereupon the media was removed and 50 μL of ONE-glo luciferase substrate (Promega) was added to each well. The plates were agitated on a rotating platform at room temperature for 3 min and read in a Victor^3V microplate reader (Perkin-Elmer) using a 700 nm cut-off filter with a 1 sec read time. EC50 values were calculated from dose response curves from the resulting best-fit equations determined by Microsoft Excel and XLfit 4.1 software.

[3] = tested on: 1a-luc Q30K (HCV genotype 1a replicon); assay: Luciferase replicon transient transfection assay, 1a-luc Q30K; type: cell-based, hepatitis C virus; conditions: for EC50: Hepatitis C virus, 96 h, Huh7.5 cells, 4 days
Method: as §1

[4] = tested on: ZS11-luc P32L (HCV genotype 1b replicon); assay: Luciferase replicon transient transfection assay, ZS11-luc P32L; type: cell-based, hepatitis C virus; conditions: for EC50: Hepatitis C virus, 96 h, Huh7.5 cells, 4 days
Method: as §1

[5] = tested on: ZS11-luc L28T (HCV genotype 1b replicon); assay: Luciferase replicon transient transfection assay, ZS11-luc L28T; type: cell-based, hepatitis C virus; conditions: for EC50: Hepatitis C virus, 96 h, Huh7.5 cells, 4 days
Method: as §1

[6] = tested on: ZS11-luc R30E (HCV genotype 1b replicon); assay: Luciferase replicon transient transfection assay, ZS11-luc R30E; type: cell-based, hepatitis C virus; conditions: for EC50: Hepatitis C virus, 96 h, Huh7.5 cells, 4 days
Method: as §1

[7] = tested on: HCV genotype 1a replicon, NS5A K24E; assay: Luciferase replicon transient transfection assay, genotype 1a NS5A K24E; type: cell-based, hepatitis C virus; conditions: for EC50: Hepatitis C virus, genotype 1a, HCV region NS5A, mutation K24E
Method: as §1

[8] = tested on: HCV genotype 1a replicon, NS5A E295G; assay: Luciferase replicon transient transfection assay, genotype 1a NS5A E295G; type: cell-based, hepatitis C virus; conditions: for EC50: Hepatitis C virus, genotype 1a, HCV region NS5A, mutation E295G
Method: as §1

[9] = tested on: ZS11-luc replicon, NS3-R155K; assay: Luciferase replicon transient transfection assay, NS3-R155K; type: cell-based, hepatitis C virus; conditions: for EC50: Hepatitis C virus
Method: as §1
To determine the replication capacity of each mutant relative to the wild-type parental replicon, transfected cells were plated on two plates and were not treated with compound. Luciferase activity was measured at time points of 4 hrs and 4 days after plating for each replicon. Replication capacity was calculated by dividing the day 4 CPS by the 4 hour CPS for each replicon and determining the percentage present for each mutant replicon relative to wild-type replicon values. The NS3, NS4B, and NS5B mutants were prepared and tested according to the methods described herein.

[10] = tested on: 1a-luc M28T (HCV genotype 1a replicon); assay: Luciferase replicon transient transfection assay, 1a-luc M28T; type: cell-based, hepatitis C virus; conditions: for EC50: Hepatitis C virus, 96 h, Huh7.5 cells, 4 days
Method: as §1

Structure (SMILES): COC(=O)N[C@H](C(=O)N1CCC[C@H]1c1ncc(-c2ccc(-c3csc4c(-c5cnc([C@@H]6CCCN6C(=O)[C@@H](NC(=O)OC)C(C)C)[nH]5)csc34)cc2)[nH]1)C(C)C [Compound A15, [(S)-1-((S)-2-{4-[4-(6-{2-[(S)-1-((S)-2-methoxycarbonylamino-3-methyl-butyryl)-pyrrolidin-2-yl]-3H-imidazol-4-yl}-thieno[3,2-b]thiophen-3-yl)-phenyl]-1H-imidazol-2-yl}-pyrrolidine-1-carbonyl)-2-methyl-propyl]-carbamic acid methyl ester]
- EC50 ([1]; genotype 1a): < 0.1 nM
- CC50 (in vitro): 10000 to 75000 nM

Structure (SMILES): COC(=O)N[C@H](C(=O)N1CCC[C@H]1c1nc2cc(-c3csc4c(-c5ccc(-c6cnc([C@@H]7CCCN7C(=O)[C@H](NC(=O)OC)c7ccccc7)[nH]6)cc5)csc34)ccc2[nH]1)C(C)C [Compound A169, [(S)-1-((S)-2-{6-[6-(4-{(S)-2-[1-((R)-2-methoxycarbonylamino-2-phenyl-acetyl)-pyrrolidin-2-yl]-3H-imidazol-4-yl}-phenyl)-thieno[3,2-b]thiophen-3-yl]-1H-benzoimidazol-2-yl}-pyrrolidine-1-carbonyl)-2-methyl-propyl]-carbamic acid methyl ester]
- Ratio [2]: 40
- EC50 [2]: 0.08 nM
- Ratio [3]: 310
- EC50 [3]: 0.7 nM
- Ratio [4]: 8
- EC50 [4]: 0.02 nM
- EC50 [1]: < 0.1 nM
- Ratio [5]: 73
- EC50 [5]: 0.2 nM
- Ratio [6]: 1
- EC50 [6]: 0.003 nM
- EC50 [7]: 0.004 nM
- Ratio [7]: 1.83
- EC50 [8]: 0.004 nM
- Ratio [8]: 1.62
- EC50 [9]: 0.0017 nM
- Ratio [9]: 1.01
- Ratio [10]: 155
- EC50 [10]: 0.3 nM

Structure (SMILES): COC(=O)N[C@H](C(=O)N1CCC[C@H]1c1ncc(-c2ccc(-c3csc4c(-c5ccc6[nH]c([C@@H]7CCCN7C(=O)[C@H](NC(=O)OC)c7ccccc7)nc6c5)csc34)cc2)[nH]1)C(C)C [Compound A172, [(S)-1-((S)-2-{5-[4-(6-{(S)-2-[1-((R)-2-Methoxycarbonylamino-2-phenyl-acetyl)-pyrrolidin-2-yl]-3H-benzoimidazol-5-yl}-thieno[3,2-b]thiophen-3-yl)-phenyl]-1H-imidazol-2-yl}-pyrrolidine-1-carbonyl)-2-methyl-propyl]-carbamic acid methyl ester]
- Ratio [2]: 96
- EC50 [2]: 0.4 nM
- Ratio [3]: 317
- EC50 [3]: 1 nM
- Ratio [4]: 6
- EC50 [4]: 0.03 nM
- EC50 [1]: < 0.1 nM
- Ratio [5]: 63
- EC50 [5]: 0.2 nM
- Ratio [6]: 1
- EC50 [6]: 0.006 nM
- EC50 [7]: 0.006 nM
- Ratio [7]: 1.64
- EC50 [8]: 0.006 nM
- Ratio [8]: 1.67
- EC50 [9]: 0.0023 nM
- Ratio [9]: 1.02
- Ratio [10]: 174
- EC50 [10]: 0.7 nM

Structure (SMILES): COC(=O)N[C@H](C(=O)N1CCC[C@H]1c1ncc(-c2ccc(-c3csc4c(-c5cnc([C@@H]6CCCN6C(=O)[C@H](NC(=O)OC(C)(C)C)c6ccccc6)[nH]5)csc34)cc2)[nH]1)C(C)C [Compound A111, [(S)-1-((S)-2-{4-[4-(6-{(S)-2-[1-((R)-2-tert-butoxycarbonylamino-2-phenyl-acetyl)-pyrrolidin-2-yl]-3H-imidazol-4-yl}-thieno[3,2-b]thiophen-3-yl)-phenyl]-1H-imidazol-2-yl}-pyrrolidine-1-carbonyl)-2-methyl-propyl]-carbamic acid methyl ester]
- Ratio [2]: 146
- EC50 [2]: 6 nM
- EC50 [1]: 0.1 to 1 nM
- CC50 (in vitro): > 75000 nM
